Measurements from ChEMBL document CHEMBL4138254 (ACS Med Chem Lett, 2017).

Experiments:
Autotaxin [1] = target: T1, Autotaxin (Rattus norvegicus, UniProt Q64610); experiment: Inhibition of ATX in rat whole blood using LPA 17:0 as substrate after 1 hr by LC-MS/MS analysis
[2] = target: 5-hydroxytryptamine receptor 2A (Homo sapiens) (UniProt P28223); experiment: Inhibition of recombinant human 5-HT2A receptor at 10 uM after 60 mins by scintillation counting analysis relative to control
[3] = target: Sodium-dependent noradrenaline transporter (Homo sapiens) (UniProt P23975); experiment: Inhibition of norepinephrine transporter (unknown origin) at 10 uM relative to control
Sodium-dependent noradrenaline transporter (Homo sapiens), sequence (P23975 whole entry): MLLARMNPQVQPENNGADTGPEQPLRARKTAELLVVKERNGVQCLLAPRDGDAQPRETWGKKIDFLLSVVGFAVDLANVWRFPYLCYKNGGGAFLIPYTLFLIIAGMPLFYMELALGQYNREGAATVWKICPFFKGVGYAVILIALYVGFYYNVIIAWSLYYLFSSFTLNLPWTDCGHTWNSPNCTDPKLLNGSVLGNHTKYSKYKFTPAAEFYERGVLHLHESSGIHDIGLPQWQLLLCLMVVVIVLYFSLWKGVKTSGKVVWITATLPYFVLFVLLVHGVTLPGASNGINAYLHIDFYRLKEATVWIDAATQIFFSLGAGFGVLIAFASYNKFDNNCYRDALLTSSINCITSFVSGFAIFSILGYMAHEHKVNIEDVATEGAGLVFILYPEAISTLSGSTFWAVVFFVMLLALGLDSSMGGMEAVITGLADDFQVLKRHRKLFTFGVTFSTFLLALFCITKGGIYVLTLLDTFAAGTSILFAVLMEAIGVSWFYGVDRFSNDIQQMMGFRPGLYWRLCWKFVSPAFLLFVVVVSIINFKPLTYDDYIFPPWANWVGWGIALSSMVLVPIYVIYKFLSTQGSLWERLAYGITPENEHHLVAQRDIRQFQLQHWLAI

Rattus norvegicus [4] = experiment: In vivo inhibition of ATX in Han Wistar rat assessed as decrease in plasma LPA 18:2 species level measured up to 24 hrs by LC-MS/MS analysis relative to control; type: functional
in vitro = settings: human, Caco-2
Description: Apparent permeability across apical to basolateral side in human Caco2 cells at 10 uM measured up to 90 mins

[5] = Oral bioavailability in Han Wistar rat at 10 mg/kg; type: ADME, organism-based; settings: in vivo
Rattus norvegicus [6] = experiment: Clearance in Han Wistar rat at 1 mg/kg, iv relative to hepatic blood flow; type: ADME, organism-based; settings: in vivo
[7] = Tmax in Han Wistar rat at 10 mg/kg, po; type: ADME, organism-based; settings: in vivo
Rattus norvegicus [8] = experiment: In vivo inhibition of ATX in Han Wistar rat assessed as decrease in plasma LPA 18:1 species level measured up to 24 hrs by LC-MS/MS analysis relative to control; type: functional
L-type calcium channel = L-type calcium channel (Homo sapiens, UniProt O60840+Q01668+Q13698+Q13936); experiment: Inhibition of L-type calcium channel (unknown origin) at 10 uM relative to control; type: protein assay
Homo sapiens = organism: Homo sapiens; experiment: Inhibition of sodium channel site 2 (unknown origin) at 10 uM relative to control
Rattus norvegicus [9] = experiment: In vivo inhibition of ATX in Han Wistar rat assessed as decrease in plasma LPA 18:0 species level measured up to 24 hrs by LC-MS/MS analysis relative to control; type: functional
Rattus norvegicus [10] = experiment: In vivo inhibition of ATX in Han Wistar rat assessed as decrease in plasma LPA species level measured up to 24 hrs by LC-MS/MS analysis; type: functional, organism-based
Rattus norvegicus [11] = experiment: In vivo inhibition of ATX in Han Wistar rat assessed as decrease in plasma LPA 20:4 species level measured up to 24 hrs by LC-MS/MS analysis relative to control; type: functional
[12] = Half life in Han Wistar rat at 10 mg/kg, po; type: ADME, organism-based; settings: in vivo
[13] = Volume of distribution at steady state in Han Wistar rat at 1 mg/kg, iv; type: ADME, organism-based; settings: in vivo, read-out: Vdss
[14] = Protein binding in human plasma; type: ADME, cell-free; settings: read-out: PPB
physchem [15] = settings: pH 6.8 buffer solution
Description: Aqueous solubility of the compound in pH 6.8 buffer solution after 24 hrs by LC-UV analysis

physchem [16] = settings: pH 2.2 buffer solution
Description: Aqueous solubility of the compound in pH 2.2 buffer solution after 24 hrs by LC-UV analysis

Autotaxin [17] = target: T1, Autotaxin; experiment: Inhibition of recombinant rat ATX using LPC 18:1 as substrate after 2 hrs by rapidfire/MS-based analysis
Rattus norvegicus [18] = experiment: Dose normalized Cmax in Han Wistar rat at 10 mg/kg, po; type: ADME, organism-based; settings: in vivo
[19] = target: Voltage-gated inwardly rectifying potassium channel KCNH2 (Homo sapiens, UniProt Q12809)
Voltage-gated inwardly rectifying potassium channel KCNH2, sequence (Q12809 whole entry): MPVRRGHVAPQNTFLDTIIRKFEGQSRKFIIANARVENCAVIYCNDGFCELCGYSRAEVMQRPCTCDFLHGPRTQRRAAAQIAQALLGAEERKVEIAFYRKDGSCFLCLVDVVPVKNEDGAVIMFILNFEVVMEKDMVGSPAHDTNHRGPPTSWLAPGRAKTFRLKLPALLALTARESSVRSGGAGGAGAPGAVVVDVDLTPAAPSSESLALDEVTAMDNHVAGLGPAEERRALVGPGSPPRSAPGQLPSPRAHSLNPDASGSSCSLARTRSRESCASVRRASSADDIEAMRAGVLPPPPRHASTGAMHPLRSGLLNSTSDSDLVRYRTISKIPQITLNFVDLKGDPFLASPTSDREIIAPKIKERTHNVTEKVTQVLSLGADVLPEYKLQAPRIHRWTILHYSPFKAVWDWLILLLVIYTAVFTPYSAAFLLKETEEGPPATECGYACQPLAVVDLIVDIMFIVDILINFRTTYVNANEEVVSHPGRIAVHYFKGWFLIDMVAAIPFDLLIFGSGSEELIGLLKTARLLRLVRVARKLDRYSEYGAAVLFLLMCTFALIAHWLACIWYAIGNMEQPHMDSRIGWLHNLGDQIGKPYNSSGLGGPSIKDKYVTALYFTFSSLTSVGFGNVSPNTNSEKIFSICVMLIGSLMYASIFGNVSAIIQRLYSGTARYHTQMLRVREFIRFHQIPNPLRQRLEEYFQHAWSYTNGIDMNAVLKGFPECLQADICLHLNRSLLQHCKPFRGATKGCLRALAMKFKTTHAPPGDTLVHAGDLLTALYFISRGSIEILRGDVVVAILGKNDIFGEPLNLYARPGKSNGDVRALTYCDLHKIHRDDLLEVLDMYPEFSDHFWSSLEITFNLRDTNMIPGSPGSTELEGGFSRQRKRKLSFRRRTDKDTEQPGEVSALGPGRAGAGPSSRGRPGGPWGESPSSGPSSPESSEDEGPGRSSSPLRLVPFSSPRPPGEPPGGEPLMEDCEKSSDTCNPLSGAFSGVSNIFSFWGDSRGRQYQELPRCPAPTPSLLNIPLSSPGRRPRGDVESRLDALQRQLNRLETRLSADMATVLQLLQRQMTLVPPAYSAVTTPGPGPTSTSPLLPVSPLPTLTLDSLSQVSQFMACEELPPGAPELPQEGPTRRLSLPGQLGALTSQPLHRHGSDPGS
Description: Inhibition of human ERG expressed in HEK293 cells by patch clamp assay

[20] = Half life in Han Wistar rat at 1 mg/kg, iv; type: ADME, organism-based; settings: in vivo
Rattus norvegicus [21] = experiment: Dose normalized AUC in Han Wistar rat at 10 mg/kg, po; type: ADME, organism-based; settings: in vivo
Rattus norvegicus [22] = experiment: In vivo inhibition of ATX in Han Wistar rat assessed as decrease in plasma LPA 16:0 species level measured up to 24 hrs by LC-MS/MS analysis relative to control; type: functional
physchem [23] = settings: pH 4.5 buffer solution
Description: Aqueous solubility of the compound in pH 4.5 buffer solution after 24 hrs by LC-UV analysis

[24] = Protein binding in rat plasma; type: ADME, cell-free; settings: read-out: PPB
Rattus norvegicus [25] = experiment: Dose normalized AUC in Han Wistar rat at 1 mg/kg, iv; type: ADME, organism-based; settings: in vivo

5-hydroxytryptamine receptor 2A (Homo sapiens), sequence (P28223 whole entry): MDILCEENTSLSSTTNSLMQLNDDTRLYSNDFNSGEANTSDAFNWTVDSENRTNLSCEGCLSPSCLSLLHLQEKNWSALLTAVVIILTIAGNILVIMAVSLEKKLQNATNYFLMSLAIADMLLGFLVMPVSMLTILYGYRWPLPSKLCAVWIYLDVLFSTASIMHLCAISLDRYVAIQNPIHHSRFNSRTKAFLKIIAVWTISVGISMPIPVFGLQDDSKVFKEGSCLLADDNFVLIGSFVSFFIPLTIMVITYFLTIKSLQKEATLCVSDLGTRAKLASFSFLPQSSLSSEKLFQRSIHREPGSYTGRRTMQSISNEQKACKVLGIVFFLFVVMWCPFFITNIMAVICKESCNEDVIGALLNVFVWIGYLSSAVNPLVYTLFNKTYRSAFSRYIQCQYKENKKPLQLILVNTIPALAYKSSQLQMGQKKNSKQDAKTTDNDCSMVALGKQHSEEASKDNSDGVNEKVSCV

O=C(NC[C@@H]1[C@H]2CN(C(=O)OCc3cc(C(F)(F)F)cc(C(F)(F)F)c3)C[C@@H]12)c1ccc2[nH]nnc2c1 [BI 2545]
IC50 (Autotaxin [1]): 96 nM | inhibition [2]: 55% | inhibition [3]: 61% | inhibition (INH) (Rattus norvegicus [4]): <=90% | Papp A→B at 1.5 h, 10 µM (in vitro): 9 ×10⁻⁶ cm/s | bioavailability [5]: 30% | CL (Rattus norvegicus [6]): 10% | Tmax [7]: 1.7 h | inhibition (INH) (Rattus norvegicus [8]): <=90% | inhibition at 10 µM (L-type calcium channel): 80% | inhibition (Homo sapiens): 66% | inhibition (INH) (Rattus norvegicus [9]): <=90% | IC50 (Rattus norvegicus [10]): 100 nM | inhibition (INH) (Rattus norvegicus [11]): <=90% | half-life [12]: 204 min | Vd [13]: 0.9 L/kg | fraction unbound [14]: < 0.002 | solubility at 24 h (physchem [15]): < 1 µg/mL | solubility at 24 h (physchem [16]): < 1 µg/mL | IC50 (Autotaxin [17]): 3.4 nM | Cmax/dose (Rattus norvegicus [18]): 149 nM | IC50 [19]: > 10 µM | half-life [20]: 108 min | AUC/dose (Rattus norvegicus [21]): 675 nM·h | inhibition (INH) (Rattus norvegicus [22]): <=90% | solubility at 24 h (physchem [23]): < 1 µg/mL | fraction unbound [24]: < 0.002 | AUC/dose (Rattus norvegicus [25]): 2320 nM·h
